{"source": "patent US20090029956A1", "about": "“Substance mixture” (priority 2005, published 2009)", "tested_on": "human ciliary cells", "assay": "Flicker frequency and regeneration capability of human ciliary cells, photometric method", "type": "cell-based", "settings": "for Mean value in percent, 20 min test Solution: (II) / Mean value in percent, 20 min NaCl 0.9% (III): Time I = 100; for Mean value in percent, 20 min NaCl 0.9% (III): Time III (regeneration)", "description": "In comparison with this, the seriously damaging effect of preservatives (on the basis of benzalkonium chloride, BAC) used in conventional cortisone preparations on human ciliary cells was compared. The flicker frequency was determined in a manner known per se by means of a photometric method. Solutions and fluticasone propionate and mixed solutions of fluticasone propionate with N-chlorotaurine sodium (NCT) were prepared in accordance with the following table: Mucous membrane cells were first incubated with an isotonic NaCl solution for 20 minutes (Time I), subsequently incubated with the solutions A, B and C for 20 minutes (Time II) and subsequently incubated in an isotonic solution for a further 20 minutes (Time III). Parallel to this, […] mucous membrane cells were incubated according to the same pattern in comparison with BAC solutions (concentrations of 0.04 mg/ml; 0.1 mg/ml; 0.2 mg/ml; 0.5 mg/ml). The results of the regeneration capability of the ciliary cells after treatment with the solutions A, B and C were compared with the results after the treatment with the BAC solutions.", "data": [{"substance": "benzalkonium chloride [BAC]", "values": [{"measurement": "Mean value in percent, 20 min test Solution: (II)", "setting": "0.04 mg/ml BAC", "value": 96.6, "unit": "%"}, {"measurement": "Mean value in percent, 20 min NaCl 0.9% (III)", "setting": "0.04 mg/ml BAC", "value": 100, "unit": "%"}, {"measurement": "Mean value in percent, 20 min test Solution: (II)", "setting": "0.1 mg/ml BAC", "value": 91.9, "unit": "%"}, {"measurement": "Mean value in percent, 20 min NaCl 0.9% (III)", "setting": "0.1 mg/ml BAC", "value": 93.6, "unit": "%"}, {"measurement": "Mean value in percent, 20 min test Solution: (II)", "setting": "0.2 mg/ml BAC", "value": 63.5, "unit": "%"}, {"measurement": "Mean value in percent, 20 min NaCl 0.9% (III)", "setting": "0.2 mg/ml BAC", "value": 19.4, "unit": "%"}, {"measurement": "Mean value in percent, 20 min test Solution: (II)", "setting": "0.5 mg/ml BAC", "value": 0, "unit": "%"}, {"measurement": "Mean value in percent, 20 min NaCl 0.9% (III)", "setting": "0.5 mg/ml BAC", "value": 0, "unit": "%"}, {"measurement": "Recovery of ciliary cells after treatment", "setting": "treatment with more than 0.1 mg/ml benzalkonium chloride", "value": "remain permanently damaged"}]}]}
